Measured values published in US12522584B2, “3,4-dihydroisoquinoline compound and use thereof” (CSPC Zhongqi Pharmaceutical Technology (Shijiazhuang) Co., …, priority 2020, dated 2026).
Marks after values point to notes of the source that are not given here.

Assays:
MV4-11 xenografts = test: In vivo efficacy in MV4-11 subcutaneous xenograft model; details: for d9 Tumor Volume (mm^3): 9th day after administration; for Body Weight Change (%): 11 consecutive days, NOD-SCID mice; for Tumor Weight / Tumor weight inhibition rate (%): 11 days; for Tumor Weight: tumors dissected at end; for Tumor weight inhibition rate (%): versus vehicle group; for d0 Tumor Volume (mm^3): d0, before grouping for administration (baseline); for RTV (d9): relative tumor volume = d9/d0 tumor volume
Method: Experimental female NOD-SCID mice, SPF grade, 4 to 5 weeks, were purchased from Beijing Vital River Laboratory Animal Technology Co., Ltd. The mice were intraperitoneally injected with cyclophosphamide at a dose of 100 mg/kg one day before cell inoculation. The human acute monocytic leukemia cell line MV4-11 (1×10^7/0.1 ml/mouse) was subcutaneously inoculated into forelimb axilla of mice to establish a subcutaneous xenograft model. When the tumor volumes reached about 110 mm^3 (10 days after inoculation), the mice were equally grouped according to the tumor volume, with 5 mice in each group, i.e., vehicle group (2% DMSO+98% (0.2 g/mL) hydroxypropyl-β-cyclodextrin) and test drug groups. For the test drug groups, the dose of administration was 100 mg/kg, the dosing volume was 10 mL/kg, the dosing frequency was BID, the tumor diameters were measured twice per week, and the data was recorded. The mice were administered for 11 consecutive days. When the experiment ended, the tumors were dissected and weighed.

[1] = system: human acute monocytic leukemia cell line MV4-11; test: MV4-11 MTT cell growth inhibition; type: cell-based; details: 144 h, MV4-11 cells, MTT on Day 6
Method: The complete medium required for the culture of human acute monocytic leukemia cell line MV4-11 (Shanghai Cell Bank) for experiment was IMDM (Cat NO. 12440-053, gibco) supplemented with 10% FBS (Cat NO. SA311.02, cellmax). The cells were cultured in an incubator at 37° C. with 5% CO2. The experiment reagents included dimethyl sulfoxide (Tianjin Kemiou Chemical Reagent Co., Ltd.) and MTT (THIAZOLYL BLUE TETRAZOLIUM BROMIDE, CAS. NO. 298-93-1, VWR). The control compound GSK3326595 for experiment was homemade or commercially available. The test compound was encapsulated and stored at 4° C.
Dimethyl sulfoxide was used as a vehicle to fully dissolve the test compound, thereby formulating a stock solution at a concentration of 5×10^−2 mol/L. The stock solution was stored at −20° C. With the complete medium as diluent, the test compound was subjected to gradient dilution to afford dilutions at different concentrations for standby application. In a 96-well culture plate, the suspension of the human acute monocytic leukemia cell line MV4-11 in the complete medium, at a volume of 100 μL/well (2×10^3 cells/well), was added. Afterwards, the dilutions at different concentrations of the corresponding test compounds (100 μL/well) were added, respectively. Each of the test compounds was provided with 8 concentration gradients and three replicates were used for each concentration. The plates were incubated in an incubator at 37° C. with 5% CO2. On Day 6, the plate was treated with MTT (20 μL/well) and incubated for 4 h in an incubator at 37° C. with 5% CO2. The supernatant was discarded. Dimethyl sulfoxide (150 μL/well) was added and mixed well by shaking. The OD value at 550 nm was measured with a microplate reader. Wells containing only cell suspensions without the test compounds were control wells, and wells containing only complete media were blank wells. The cell growth inhibition rate was calculated according to the following equation: Inhibition rate=(OD valuecontrol well−OD valuesample well)/(OD valuecontrol well−OD valueblank well)×100%. According to the inhibition rate at each concentration, the half maximal inhibitory concentration IC50 value was calculated using the SPSS software. 2. Enzymatic Experiment

PRMT5 = PRMT5 (Homo sapiens (Human), UniProt O14744); test: radiometric assay for PRMT5 based on FlashPlate technology; type: biochemical; details: PRMT5 5 nM, [3H]-SAM, 60 min at 25° C.; read-out: Enzymology (IC50)
Method: The radiometric assay for PRMT5 based on FlashPlate technology was adopted to determine IC50 of the test compound.
After dissolved in dimethyl sulfoxide respectively, the test compounds were added into an Echo Qualified 384-well plate and diluted to the desired concentrations. The diluted test compounds were transferred from the Echo Qualified 384-well plate to a 384-well reaction plate using an Echo 550 instrument, and dimethyl sulfoxide was transferred into both the control and blank wells. PRMT5 was added to 1×reaction buffer (including 10 mM Tris-HCl; pH 8.0; 0.01% Tween-20; 1 mM DTT) to form a 1.67×enzyme solution (at an enzyme concentration of 5 nM). A polypeptide substrate and [3H]-SAM were added to 1× reaction buffer to form a 2.5× substrate solution (the terminal concentrations of the substrates were 100 nM and 250 nM, respectively). At a volume of 15 μL/well, the 1.67× enzyme solution was added into wells of the 384-well reaction plate. In case of the blank wells, the enzyme solution was replaced with 15 μL of the 1× reaction buffer. The reaction plate was centrifuged at 1000 rpm for 1 min, and incubated at room temperature for 15 min. To each well of the 384-well reaction plate, 10 μL of the 2.5× substrate solution was added, centrifuged at 1000 rpm for 1 min, and reacted at 25° C. for 60 min. To each well of the 384-well reaction plate, 5 μL of reaction stop solution (which was […] cold SAM solution) was added to terminate the reaction. From each well of the test plate, 25 μL was measured and transferred to Flashplate and left at room temperature for 1 h. Thereafter, the Flashplate was washed with 0.1% Tween-20 solution three times. Readings were taken with MicroBeta 2. The data was converted into the inhibition rate data. Inhibition rate=(conversion ratecontrol well−conversion ratecompound well)/(conversion ratecontrol well−conversion rateblank well)×100%. The IC50curves were fitted using XLFit5.4.0.8. The fitting equation was as follows:Y=Bottom+(Top-Bottom)/(1+(IC50/X)^HillSlope).

[2] = Pharmacokinetic experiment in SD rats; details: male, rat, plasma, po, 25 mg/kg
Method: (§1) SD rats (male, 180 g to 200 g, Beijing Vital River Laboratory Animal Technology Co., Ltd.) were administered with the test compounds (solvent: 2% DMSO+98% (0.2 g/mL) hydroxypropyl-β-cyclodextrin, dosing volume: 5 mL/kg) by gavage. Blood was collected from the orbits of the rats at different points in time (0.25, 0.5, 1, 2, 4, 8, 24 h) after administration. The collected whole blood was anticoagulated with heparin sodium and centrifuged at 3000 g to obtain rat plasma samples, and methanol was added thereto to precipitate proteins. The drug concentration in rat plasma after administration was determined by HIPLC-MS/MS method. A drug concentration-time curve was plotted and the pharmacokinetic parameters were calculated. Pharmacokinetic behaviors of the compounds after administration in rats were described by means of the parameter estimation of non-compartmental model based on statistical moment theory.

in vivo = details: male, SD, rat, po, 25 mg/kg
Method: as §1

Chain of PRMT5 (O14744 whole entry): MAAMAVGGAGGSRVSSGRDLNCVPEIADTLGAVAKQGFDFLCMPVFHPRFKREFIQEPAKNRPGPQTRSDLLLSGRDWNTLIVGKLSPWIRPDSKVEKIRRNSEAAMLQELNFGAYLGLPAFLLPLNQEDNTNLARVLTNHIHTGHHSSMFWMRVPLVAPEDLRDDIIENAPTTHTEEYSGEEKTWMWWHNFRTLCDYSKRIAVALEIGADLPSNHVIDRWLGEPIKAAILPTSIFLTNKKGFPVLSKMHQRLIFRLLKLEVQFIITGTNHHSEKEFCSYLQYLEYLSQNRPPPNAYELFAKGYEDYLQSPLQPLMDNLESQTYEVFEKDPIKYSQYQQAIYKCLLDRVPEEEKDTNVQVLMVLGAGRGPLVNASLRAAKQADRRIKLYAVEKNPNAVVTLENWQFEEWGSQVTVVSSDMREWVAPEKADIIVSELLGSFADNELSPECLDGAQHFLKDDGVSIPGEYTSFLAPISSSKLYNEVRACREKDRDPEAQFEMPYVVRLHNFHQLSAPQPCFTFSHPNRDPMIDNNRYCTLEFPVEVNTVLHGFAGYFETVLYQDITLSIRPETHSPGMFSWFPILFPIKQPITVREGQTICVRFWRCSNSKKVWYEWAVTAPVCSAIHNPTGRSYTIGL
Chain of PRMT5 (Q9BQA1 whole entry partner): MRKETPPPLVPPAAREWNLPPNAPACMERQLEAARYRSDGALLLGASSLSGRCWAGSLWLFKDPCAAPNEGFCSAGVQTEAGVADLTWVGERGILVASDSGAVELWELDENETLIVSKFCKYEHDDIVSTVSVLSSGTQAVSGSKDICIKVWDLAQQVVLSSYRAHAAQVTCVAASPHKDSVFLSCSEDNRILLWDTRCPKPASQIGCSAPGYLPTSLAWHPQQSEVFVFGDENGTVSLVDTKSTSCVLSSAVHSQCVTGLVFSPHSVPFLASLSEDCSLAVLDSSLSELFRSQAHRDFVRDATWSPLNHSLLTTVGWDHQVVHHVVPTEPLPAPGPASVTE

SMILES	IC50 [1] [nM]	IC50 (PRMT5) [nM]	AUC(0-t) [2] [ng·h/mL]	Cmax [2] [ng/mL]	Tmax [2] [min]	d9 Tumor Volume (mm^3) (MV4-11 xenografts; 100 mg/kg BID)	Tumor Weight (MV4-11 xenografts; 100 mg/kg BID) [g]	Tumor weight inhibition rate (%) (MV4-11 xenografts; 100 mg/kg BID)	d0 Tumor Volume (mm^3) (MV4-11 xenografts)	RTV (d9) (MV4-11 xenografts; 100 mg/kg BID)	also measured
CC(=O)N1CCC(Nc2cc(C(=O)NC[C@H](O)CN3CCc4ccccc4C3)ncn2)CC1 [GSK3326595, reference compound]						135 ± 43** mm^3	0.1124 ± 0.0764	84.5	165.2 ± 23.1	0.8 ± 0.2	Body Weight Change (%) (MV4-11 xenografts; 100 mg/kg BID): −6.8%
O=C(NC[C@H](O)CN1CCc2ccccc2C1)c1cc(NC2CCN(C(=O)C(=NO)C3CC3)CC2)ncn1 [PR-1, (S)-6-((1-(2-cyclopropyl-2-(hydroxyimino)acetyl)piperidin-4-yl)amino)-N-(3-(3,4-dihydroisoquinolin-2(1H)-yl)-2-hydroxypropyl)pyrimidine-4-carboxamide]	5.02	13									
CON=C(C(=O)N1CCC(Nc2cc(C(=O)NC[C@H](O)CN3CCc4ccccc4C3)ncn2)CC1)C1CC1 [PR-2, (S)-6-((1-(2-cyclopropyl-2-(methoxyimino)acetyl)piperidin-4-yl)amino)-N-(3-(3,4-dihydroisoquinolin-2(1H)-yl)-2-hydroxypropyl)pyrimidine-4-carboxamide]		13	821	473	30						
CC(=NO)C(=O)N1CCC(Nc2cc(C(=O)NC[C@H](O)CN3CCc4ccccc4C3)ncn2)CC1 [PR-3, (S)-N-(3-(3,4-dihydroisoquinolin-2(1H)-yl)-2-hydroxypropyl)-6-((1-(2-(hydroxyimino)propanoyl)piperidin-4-yl)amino)pyrimidine-4-carboxamide]	1.24	15									
CON=C(C)C(=O)N1CCC(Nc2cc(C(=O)NC[C@H](O)CN3CCc4ccccc4C3)ncn2)CC1 [PR-4, (S)-N-(3-(3,4-dihydroisoquinolin-2(1H)-yl)-2-hydroxypropyl)-6-((1-(2-(methoxyimino)propanoyl)piperidin-4-yl)amino)pyrimidine-4-carboxamide]	6.77					55.7 ± 19.7***## mm^3	0.0648 ± 0.0267	91.1	165.3 ± 27.5	0.4 ± 0.1	Body Weight Change (%) (MV4-11 xenografts; 100 mg/kg BID): −6.1%
CON=C(CC(C)C)C(=O)N1CCC(Nc2cc(C(=O)NC[C@H](O)CN3CCc4ccccc4C3)ncn2)CC1 [PR-5, (S)-N-(3-(3,4-dihydroisoquinolin-2(1H)-yl)-2-hydroxypropyl)-6-((1-(2-(methoxyimino)-4-methylpentanoyl)piperidin-4-yl)amino)pyrimidine-4-carboxamide]	1.44	23	674	660	20						
O=C(NC1CC2(C1)CC(Nc1cc(C(=O)NC[C@H](O)CN3CCc4ccccc4C3)ncn1)C2)C(=NO)C1CC1 (stereo partly drawn) [PR-6, (S)-6-((6-(2-cyclopropyl-2-(hydroxyimino)acetamido)spiro[3.3]heptan-2-yl)amino)-N-(3-(3,4-dihydroisoquinolin-2(1H)-yl)-2-hydroxypropyl)pyrimidine-4-carboxamide]	1.9	16									
CON=C(C)C(=O)N1CC2(CC(Nc3cc(C(=O)NC[C@H](O)CN4CCc5ccccc5C4)ncn3)C2)C1 [PR-10, (S)-N-(3-(3,4-dihydroisoquinolin-2(1H)-yl)-2-hydroxypropyl)-6-((2-(2-(methoxyimino)propanoyl)-2-azaspiro[3.3]heptan-6-yl)amino)pyrimidine-4-carboxamide]	0.664	16				34.3 ± 29.2**## mm^3	0.0153 ± 0.0105	97.9	164.8 ± 32.5	0.2 ± 0.2	AUC(0-t) (in vivo): 2040 ng·h/mL; Cmax (in vivo): 1340 ng/mL; Tmax (in vivo): 25 min; animal death / drug toxicity observation (MV4-11 xenografts; 100 mg/kg BID, one animal died due to incorrect gavage): the death was not caused by drug toxicity

Second part, led by results:

IC50 [1] [nM]	IC50 (PRMT5) [nM]	AUC(0-t) [2] [ng·h/mL]	Cmax [2] [ng/mL]	Tmax [2] [min]	SMILES	d9 Tumor Volume (mm^3) (MV4-11 xenografts; 100 mg/kg BID)	Tumor Weight (MV4-11 xenografts; 100 mg/kg BID) [g]	Tumor weight inhibition rate (%) (MV4-11 xenografts; 100 mg/kg BID)	d0 Tumor Volume (mm^3) (MV4-11 xenografts)	RTV (d9) (MV4-11 xenografts; 100 mg/kg BID)	also measured
1.04	14	2540	1120	40	CON=C(C(=O)NC1CC2(C1)CC(Nc1cc(C(=O)NC[C@H](O)CN3CCc4ccccc4C3)ncn1)C2)C1CC1 (stereo partly drawn) [PR-7, (S)-6-((6-(2-cyclopropyl-2-(methoxyimino)acetamido)spiro[3.3]heptan-2-yl)amino)-N-(3-(3,4-dihydroisoquinolin-2(1H)-yl)-2-hydroxypropyl)pyrimidine-4-carboxamide]	60.2 ± 20.1***## mm^3	0.0710 ± 0.0353	90.2	165.6 ± 28.1	0.4 ± 0.1	Body Weight Change (%) (MV4-11 xenografts; 100 mg/kg BID): −6.9%
0.98	19				CC(=NO)C(=O)NC1CC2(C1)CC(Nc1cc(C(=O)NC[C@H](O)CN3CCc4ccccc4C3)ncn1)C2 (stereo partly drawn) [PR-8, (S)-N-(3-(3,4-dihydroisoquinolin-2(1H)-yl)-2-hydroxypropyl)-6-((6-(2-(hydroxyimino)propanamido)spiro[3.3]heptan-2-yl)amino)pyrimidine-4-carboxamide]						
6.84	23	1270	875	30	CON=C(C)C(=O)NC1CC2(C1)CC(Nc1cc(C(=O)NC[C@H](O)CN3CCc4ccccc4C3)ncn1)C2 (stereo partly drawn) [PR-9, (S)-N-(3-(3,4-dihydroisoquinolin-2(1H)-yl)-2-hydroxypropyl)-6-((6-(2-(methoxyimino)propanamido)spiro[3.3]heptan-2-yl)amino)pyrimidine-4-carboxamide]						
1.4	18				O=C(NC[C@H](O)CN1CCc2ccccc2C1)c1cc(NC2CC3(C2)CN(C(=O)C(=NO)C2CC2)C3)ncn1 [PR-11, (S)-6-((2-(2-cyclopropyl-2-(hydroxyimino)acetyl)-2-azaspiro[3.3]heptan-6-yl)amino)-N-(3-(3,4-dihydroisoquinolin-2(1H)-yl)-2-hydroxypropyl)pyrimidine-4-carboxamide]						
0.691	2.7				CON=C(C(=O)N1CC2(CC(Nc3cc(C(=O)NC[C@H](O)CN4CCc5ccccc5C4)ncn3)C2)C1)C1CC1 [PR-12, (S)-6-((2-(2-cyclopropyl-2-(methoxyimino)acetyl)-2-azaspiro[3.3]heptan-6-yl)amino)-N-(3-(3,4-dihydroisoquinolin-2(1H)-yl)-2-hydroxypropyl)pyrimidine-4-carboxamide]						
